This is an account of results in patent US4119784A, “Anionic substituted sulfonamido biphenyls” (American Cyanamid Company, priority 1977, dated 1978).

Holding throughout (type): biochemical
The test system of assay [1] is late components of human complement (C3-C9). Description: Test, Code 035 (C3-C9 inhibitor). Set-up: key: N = Negative. Particulars: protection of EAC 142 from lysis by human C3-C9; two-fold serial dilution assay. From the text: (§1) An active inhibitor protects C2 from C1 and C4; (ii) Test, Code 035 (C3-C9 inhibitor)--This test determines the ability of the late components of human complement (C3-C9) to lyse EAC 142 in the presence of appropriate dilutions of the test compound. An active inhibitor protects EAC 142 from lysis by human C3-C9; (iii) Test, Code 036 (C-Shunt inhibitor)--In this test human erythrocytes rendered fragile are lysed in autologous serum via the shunt pathway activated by cobra venom factor in the presence of appropriate dilutions of the test compound. Inhibition of the shunt pathway results in failure of lysis; (iv) Forssman Vasculitis Test--Here, the well known complement dependent lesion, Forssman vasculitis, is produced in guinea pigs by intradermal injection of rabbit anti-Forssman antiserum. […]

Assay [2] has as its system shunt pathway activated by cobra venom factor. Description: Test, Code 036 (C-Shunt inhibitor). Particulars: human erythrocytes in autologous serum; two-fold serial dilution assay; higher well number indicates higher activity.
Excerpt: as §1

Another assay concerns activated human C1. Description: Test, Code 026 (C1 inhibitor). Particulars: activity in wells of a two-fold serial dilution assay; higher well number indicates higher activity.
Excerpt: as §1

Counter-ions that a name gives are not always drawn.

For the molecule `O=C(O)c1cc(NS(=O)(=O)c2ccc(-c3ccc(S(=O)(=O)Nc4cc(C(=O)O)cc(C(=O)O)c4)cc3S(=O)(=O)Nc3cc(C(=O)O)cc(C(=O)O)c3)c(S(=O)(=O)Nc3cc(C(=O)O)cc(C(=O)O)c3)c2)cc(C(=O)O)c1` [5,5',5",5'"-[2,2',4,4'-Biphenyltetrayltetrakis(sulfonylimino)[tetraisophthalic acid octasodium salt], the “C-Late 035 Wells” value in assay [1] is “N”. Also, the “Shunt Inhibition 036 Wells” value in assay [2] was “+3 Wells”. Besides, in the assay with activated human C1, the “Cl 026 Wells” value is listed as “+7 Wells”.
